In data set [1] the target is HIV reverse transcriptase (Human immunodeficiency virus type 1 group M subtype B, UniProt P03366). The data set can be described thus: Reverse transcriptase scintillation proximity assay (Example 4, Table 2). It is filed as biochemical. Particulars: for IC50: read-out: IC50 (RT activity); for remaining activity at 10 µM: 0.05 h, read-out: % RT activity remaining at 10 μM. An outline of the steps:
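Purified RT with biotinylated 17mer/50mer RNA-DNA template-primer (39 nm), pH 8.0 Tris with 10 mM MgCl2, 60 mM KCl, dNTPs plus tritiated dTTP; inhibitor preincubated 10 min at 37 °C before enzyme, reaction 3 min. Incorporation read by streptavidin SPA counting.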

For data set [2], the target named is T1, HIV integrase (Human immunodeficiency virus type 1 group M subtype B, UniProt P04585). Briefly: biochemical. To be noted: read-out: Inhibition of 3' processing activity (IC50).
For data set [3], the target named is T1, HIV integrase. The data set can be described thus: biochemical. To be noted: read-out: Inhibition of strand transfer (IC50).
Data set [4] relates to HIV. The data set can be described thus: Cell-based anti-HIV (XTT) assay (National Institutes of Health). Particulars: run by the National Institutes of Health. An excerpt: The anti-viral evaluations branch of the National Institutes of Health also ran cell-based anti-HIV (XTT) assays and reverse transcriptase (RT) assays on a number of the novel compounds. […] These were: 31, 32, 35, 36, 53, 54, 57, 58, 91, 99, and 103.
For orientation: Tetrazolium dyes change colour on reduction, which living cells bring about.

A further data set has as its system 293T cells. Briefly: Toxicity to 293T cells by growth curves and trypan blue exclusion. To be noted: concentrations greater than ten times IC50 against HIV RT.
Data set [5] relates to HIV. Particulars: cited from earlier work.
Setting [6] is: 10 μM inhibitor, relative to dimethyl sulfoxide = 100%.

Usually IC50 stands for the concentration that gives 50% inhibition. What is called remaining activity is the activity still measured, relative to the control.

Structures can show the parent of a compound that is named as a salt. Where two headings read alike, the source gives them in different places.

`O=C(O)/C=C/c1ccc(N=Nc2c(S(=O)(=O)O)cc3cc(NC(=O)Nc4ccc5c(O)c(N=Nc6ccc(/C=C/C(=O)O)cc6)c(S(=O)(=O)O)cc5c4)ccc3c2O)cc1` [Compound 5]: the IC50 came to 200 nM in data set [1], 900 nM at HIV integrase [2] and 1000 nM on HIV integrase [3]. In addition, the “conclusion of cell-based anti-HIV (XTT) assays and reverse transcriptase (RT) assays” value (“conclusion of cell-based anti-HIV” below) in the data set on HIV [4] is listed as “confirmed active”. Further, the toxicity to cells entry with 293T cells is “not toxic even at concentrations greater than ten times its IC50”.

For the compound `O=C(Nc1ccc2c(O)c(N=Nc3ccc(C(=O)O)cc3)c(S(=O)(=O)O)cc2c1)Nc1ccc2c(O)c(N=Nc3ccc(C(=O)O)cc3)c(S(=O)(=O)O)cc2c1` [Compound 31], the IC50 in data set [1] was 390 nM; at HIV integrase [2] it was 400 nM; on HIV integrase [3] it was 700 nM. For the same compound, in the data set on HIV [4], the “conclusion of cell-based anti-HIV” value is reported as “active or moderately active”.

In the case of `O=C(O)Cc1ccc(N=Nc2c(S(=O)(=O)O)cc3cc(NC(=O)Nc4ccc5c(O)c(N=Nc6ccc(CC(=O)O)cc6)c(S(=O)(=O)O)cc5c4)ccc3c2O)cc1` [Compound 32], the results for the IC50 (in data set [1]; at HIV integrase [2]; on HIV integrase [3]) were 500 nM, 2000 nM and 700 nM, respectively. Also, in the data set with HIV [4], the “conclusion of cell-based anti-HIV” value is “active or moderately active”.

For the compound `O=C(Nc1ccc2c(O)c(N=Nc3cc(C(=O)O)ccc3C(=O)O)c(S(=O)(=O)O)cc2c1)Nc1ccc2c(O)c(N=Nc3cc(C(=O)O)ccc3C(=O)O)c(S(=O)(=O)O)cc2c1` [Compound 35], the IC50 in data set [1] came to 500 nM; on HIV integrase [2], 800 nM; at HIV integrase [3] it was 2000 nM. Further, the “conclusion of cell-based anti-HIV” value with HIV [4] is recorded as “active or moderately active”.

For the compound `O=C(O)CCCc1ccc(N=Nc2c(S(=O)(=O)O)cc3cc(NC(=O)Nc4ccc5c(O)c(N=Nc6ccc(CCCC(=O)O)cc6)c(S(=O)(=O)O)cc5c4)ccc3c2O)cc1` [Compound 36], the IC50 in data set [1] was 500 nM; at HIV integrase [2], 800 nM; on HIV integrase [3] it was 1000 nM. Besides, the “conclusion of cell-based anti-HIV” value in the data set on HIV [4] was “active or moderately active”.

As to `Cc1cc(C(=O)O)ccc1N=Nc1c(S(=O)(=O)O)cc2cc(NC(=O)Nc3ccc4c(O)c(N=Nc5ccc(C(=O)O)cc5C)c(S(=O)(=O)O)cc4c3)ccc2c1O` [Compound 53], the IC50 in data set [1] is 600 nM; at HIV integrase [2] it was 500 nM; at HIV integrase [3], 2000 nM. Also, the “conclusion of cell-based anti-HIV” value in the data set with HIV [4] is “active or moderately active”.

`COc1cc(C(=O)O)ccc1N=Nc1c(S(=O)(=O)O)cc2cc(NC(=O)Nc3ccc4c(O)c(N=Nc5ccc(C(=O)O)cc5OC)c(S(=O)(=O)O)cc4c3)ccc2c1O` [Compound 54]: the remaining activity at 10 µM in data set [1] (setting [6]) is 0.6%. For the same compound, the IC50 was found to be 4000 nM at HIV integrase [2] and 2000 nM on HIV integrase [3]. In addition, the “conclusion of cell-based anti-HIV” value with HIV [4] is reported as “active or moderately active”.

`O=C(O)CCC(NC(=O)c1ccc(N=Nc2c(S(=O)(=O)O)cc3cc(NC(=O)Nc4ccc5c(O)c(N=Nc6ccc(C(=O)NC(CCC(=O)O)C(=O)O)cc6)c(S(=O)(=O)O)cc5c4)ccc3c2O)cc1)C(=O)O` (stereo not shown) [Compound 57]: the remaining activity at 10 µM in data set [1] (setting [6]) amounted to 0.6%. Also, the values for the IC50 at HIV integrase [2] and on HIV integrase [3] were 600 nM and 900 nM, respectively. Besides, the “conclusion of cell-based anti-HIV” value in the data set with HIV [4] is “active or moderately active”.

Take `O=C(Nc1ccc2c(O)c(N=Nc3cccc(C(=O)O)c3)c(S(=O)(=O)O)cc2c1)Nc1ccc2c(O)c(N=Nc3cccc(C(=O)O)c3)c(S(=O)(=O)O)cc2c1` [Compound 58]: the IC50 in data set [1] turned out to be 800 nM; on HIV integrase [2], 200 nM; at HIV integrase [3], 600 nM. Further, in the data set with HIV [4], the “conclusion of cell-based anti-HIV” value is “active or moderately active”.

`COc1cc(N=Nc2c(S(=O)(=O)O)cc3cc(NC(=O)Nc4ccc5c(O)c(N=Nc6cc(OC)c(OC)cc6C(=O)O)c(S(=O)(=O)O)cc5c4)ccc3c2O)c(C(=O)O)cc1OC` [Compound 60]: the remaining activity at 10 µM in data set [1] (setting [6]) worked out at 6%. The IC50 at HIV integrase [2] came out at 800 nM; at HIV integrase [3] it was 2000 nM.

For `O=C(Nc1ccc2c(O)c(N=Nc3ccc(CP(=O)(O)O)cc3)c(S(=O)(=O)O)cc2c1)Nc1ccc2c(O)c(N=Nc3ccc(CP(=O)(O)O)cc3)c(S(=O)(=O)O)cc2c1` [Compound 61], the remaining activity at 10 µM in data set [1] was 53%. Further, the IC50 at HIV integrase [2] and at HIV integrase [3] was greater than 3000 nM in each case.

As for `O=C(O)/C=C/c1ccc(N=Nc2c(S(=O)(=O)O)cc3cc(NC(=O)C(=O)Nc4ccc5c(O)c(N=Nc6ccc(/C=C/C(=O)O)cc6)c(S(=O)(=O)O)cc5c4)ccc3c2O)cc1` [Compound 91], the “conclusion of cell-based anti-HIV” value in the data set on HIV [4] is given as “active or moderately active”.

`COc1cc(C(=O)O)ccc1N=Nc1c(S(=O)(=O)O)cc2cc(NC(=O)C(=O)Nc3ccc4c(O)c(N=Nc5ccc(C(=O)O)cc5OC)c(S(=O)(=O)O)cc4c3)ccc2c1O` [Compound 99]: at HIV integrase [3], the IC50 was determined as 300 nM. For the same compound, the “conclusion of cell-based anti-HIV” value in the data set on HIV [4] is recorded as “active or moderately active”.

With `Cc1cc(C(=O)O)ccc1N=Nc1c(S(=O)(=O)O)cc2cc(NC(=O)C(=O)Nc3ccc4c(O)c(N=Nc5ccc(C(=O)O)cc5C)c(S(=O)(=O)O)cc4c3)ccc2c1O` [Compound 103], the IC50 at HIV integrase [2] and at HIV integrase [3] was less than 1000 nM in each case. The “conclusion of cell-based anti-HIV” value in the data set on HIV [4] is “active or moderately active”.

For the compound `Cc1ccccc1N=Nc1c(S(=O)(=O)[O-])cc2cc(NC(=O)Nc3ccc4c(O)c(N=Nc5ccc6cc(S(=O)(=O)[O-])ccc6c5)c(S(=O)(=O)[O-])cc4c3)ccc2c1O.[Na+].[Na+].[Na+]` [brilliant paper scarlet G], the “activity in AIDS antiviral screens” value in the data set with HIV [5] is “confirmed active”.

For the compound `CCOc1cc(N=Nc2cc(Cl)c(S(=O)(=O)O)cc2Cl)c2cc(S(=O)(=O)O)ccc2c1N=Nc1c(S(=O)(=O)O)cc2cc(NC(=O)c3ccc(N)cc3)ccc2c1O` [calcomine scarlet 4BNC, 2-naphthalenesulfonic acid, 7-[(4-aminobenzoyyl)amino]-3-[[4-[(2,5-dichloro-4-sulfophenyl)azo]-2-ethoxy-6-sulfo-1-naphthalenyl]azo]-4-hydroxy-,trisodium salt (9CI)], the “activity in AIDS antiviral screens” value with HIV [5] is “confirmed active”.

Consider `COc1ccccc1N=Nc1c(S(=O)(=O)[O-])cc2cc(NC(=O)Nc3ccc4c(O)c(N=Nc5ccc(S(=O)(=O)[O-])cc5C)c(S(=O)(=O)[O-])cc4c3)ccc2c1O.[Na+].[Na+].[Na+]` [direct fast scarlet 4BSW], for which the “activity in AIDS antiviral screens” value with HIV [5] is listed as “confirmed active”.

(Values after patent publication US6140368A, “Naphthols useful in antiviral methods” (The Regents of the University of California, priority 1998, dated 2000).)
